Drawing on patent publication US20100298370A1, “BENZOTHIAZOLYL THIENOPYRIDINE DERIVATIVES AND USES THEREOF” (priority 2006, published 2010), this text covers inhibition and IC50 for 25 compounds.

This test addresses T1, VEGF binding to heparin (HS-GAG) (Homo sapiens, UniProt P15692).
T1 construct: purchased Research and Development Systems
T1 sequence (P15692 27-191 isoform P15692-4): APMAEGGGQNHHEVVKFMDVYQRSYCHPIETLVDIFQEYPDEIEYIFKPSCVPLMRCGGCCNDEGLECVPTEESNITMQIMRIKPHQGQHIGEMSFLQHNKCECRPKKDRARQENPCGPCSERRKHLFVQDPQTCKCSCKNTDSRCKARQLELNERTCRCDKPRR
As to the kind of experiment: In vitro VEGF to HS-GAG binding assay (ELISA, heparin-BSA coated plate). An excerpt: An in vitro assay was used to assess the ability of test compounds of general formulas I and II to inhibit the interaction of VEGF with HS-GAGs. The assay was designed to for determine the concentration required for 50% inhibition (IC-50) for each specific compound. The test compounds were purchased from Life Chemicals Ltd. (Kiev, Ukraine), and the GAG used was heparin (heparin grade I-A; Sigma) conjugated to bovine serum albumin (Sigma) and diluted 1:200 in phosphate-buffered saline (PBS; pH 7.3). The heparin was added to a 96-well polystyrene ELISA plate (NUNC; 0.1 ml per well) and incubated overnight at 4° C. Following the incubation, the plate was washed thoroughly, by immersion, with de-ionized water and then with PBS (pH 7.3) containing Tween 20 (Sigma, 0.05%). The ELISA plate was then blocked with BSA (ICN, 3%, 200 μl per well) for 1 hour at room temperature. Following blocking, the plate was washed with de-ionized water, and then twice with PBS (pH 7.3) containing Tween 20. Recombinant human VEGF (Research and Development Systems) dissolved in PBS supplemented with BSA (0.1%) was added to the ELISA plate. The test compounds were dissolved in DMSO (MERCK), diluted in PBS and added to the wells at concentrations ranging from 0.01 to 200 μM to obtain a final volume 100 μl per well, and incubated for 60 minutes at room temperature with shaking. Following incubation, the plate was washed with de-ionized water and PBS (pH 7.3) containing Tween 20. Anti-human VEGF (1:2000; Research and Development Systems) diluted in PBS supplemented with BSA (1%) was added to the ELISA plate (100 per well) and incubated for 60 minutes at room temperature with shaking. Following incubation, the plate was washed with de-ionized water and then with PBS (pH 7.3) containing Tween 20. Streptavidin-HRP (1:200; Research and Development Systems Cat. No. DY998) diluted in PBS supplemented with BSA (1%) was added to the ELISA plate (100 per well) and incubated for 20 minutes at room temperature with shaking. The plate was then washed with de-ionized water and twice with PBS (pH 7.3) containing Tween 20. The peroxidase substrate chromogen tetramethyl benzidine (TMB; Dako) was added (100 μl per well) to the ELISA plate and incubated at room temperature. After 15 minutes, ELISA Stop Solution (hydrochloric acid 1N, sulfuric acid 3N) was added (100 μl per well) to stop the peroxidase catalyzed colorimetric reaction. The Optical Density (OD) of the samples was measured at 450 nm using an ELISA plate reader (Dynatech MR5000). Data were analyzed with Graphpad Prism software and IC-50 values were determined.
Percent inhibition at 30 μM concentration is shown and for selected compounds IC-50 was established.

In turn, `CCN1CCc2c(sc(NC(=O)c3ccc(OC)cc3)c2-c2nc3ccccc3s2)C1` [Compound 11, N-[3-(2-benzothiazolyl)-4,5,6,7-tetrahydro-6-ethylthieno[2,3-c]pyridin-2-yl]-4-methoxybenzamide] returned an inhibition at 30 µM of 41%.

In turn, `CC(=O)N1CCc2c(sc(NC(=O)c3cccc(Br)c3)c2-c2nc3ccccc3s2)C1` [Compound 36, N-[3-(2-benzothiazolyl)-4,5,6,7-tetrahydro-6-acetylthieno[2,3-c]pyridin-2-yl]-3-bromobenzamide] yielded an inhibition at 30 µM of 31%. For `COc1ccc(C(=O)Nc2sc3c(c2-c2nc4ccccc4s2)CCN(Cc2ccccc2)C3)c(OC)c1` [Compound 13, N-[3-(2-benzothiazolyl)-4,5,6,7-tetrahydro-6-phenylmethylthieno[2,3-c]pyridin-2-yl]-(2,4-dimethoxy)benzamide], the inhibition at 30 µM was found to be 64%. Still for that read-out and setting: next, `CN1CCc2c(sc(NC(=O)CN3C(=O)c4ccccc4C3=O)c2-c2nc3ccccc3s2)C1` [Compound 30, N-[3-(2-benzothiazolyl)-4,5,6,7-tetrahydro-6-methylthieno[2,3-c]pyridin-2-yl]-1,3-dihydro-1,3-dioxo-2H-isoindole-2-acetamide]: 29%; `CN1CCc2c(sc(NC(=O)c3cc4c(ccc5ccccc54)oc3=O)c2-c2nc3ccccc3s2)C1` [Compound 32, N-[3-(2-benzothiazolyl)-4,5,6,7-tetrahydro-6-methylthieno[2,3-c]pyridin-2-yl]-3-oxo-3H-naphtho[2,1-b]pyran-2-carboxamide]: 31%. As for `CN1CCc2c(sc(NC(=O)c3ccco3)c2-c2nc3ccccc3s2)C1` [Compound 25, N-[3-(2-benzothiazolyl)-4,5,6,7-tetrahydro-6-methylthieno[2,3-c]pyridin-2-yl]-2-furancarboxamide], the inhibition at 30 µM came to 55%. In the case of `Cc1ccc(S(=O)(=O)CC(=O)Nc2sc3c(c2-c2nc4ccccc4s2)CCN(C)C3)cc1` [Compound 39, N-[3-(2-benzothiazolyl)-4,5,6,7-tetrahydro-6-methylthieno[2,3-c]pyridin-2-yl]-(4-methylphenylsulfonyl)acetamide], the inhibition at 30 µM is 42%. On to `CC(C)(C)C(=O)Nc1sc2c(c1-c1nc3ccccc3s1)CCN(Cc1ccccc1)C2` [Compound 21, N-[3-(2-benzothiazolyl)-4,5,6,7-tetrahydro-6-phenylmethyllthieno[2,3-c]pyridin-2-yl]-2,2-dimethylpropaneamide], for which the IC50 came out at 900 nM and the inhibition at 30 µM was found to be 79%. The compound `CC(C)Oc1ccc(C(=O)Nc2sc3c(c2-c2nc4ccccc4s2)CCN(C)C3)cc1` [Compound 19, N-[3-(2-benzothiazolyl)-4,5,6,7-tetrahydro-6-methylthieno[2,3-c]pyridin-2-yl]-4-(1-methylethoxy)benzamide] registered an inhibition at 30 µM of 49%. On to `Cc1ccc(CC(=S)Nc2sc3c(c2-c2nc4ccccc4s2)CCN(C)C3)cc1` [Compound 40, N-[3-(2-benzothiazolyl)-4,5,6,7-tetrahydro-6-methylthieno[2,3-c]pyridin-2-yl]-(4-methylphenyl)thioacetamide], for which the inhibition at 30 µM amounted to 41%.

On to `O=C(Nc1sc2c(c1-c1nc3ccccc3s1)CCN(Cc1ccccc1)C2)c1cc(Cl)sc1Cl` [Compound 22, N-[3-(2-benzothiazolyl)-4,5,6,7-tetrahydro-6-phenylmethylthieno[2,3-c]pyridin-2-yl]-3-(2,5-dichloro)thiophenecarboxamide], for which testing at 30 µM gave an inhibition of 39%. Regarding `CCN1CCc2c(sc(NC(=O)c3cccc(N4C(=O)CCC4=O)c3)c2-c2nc3ccccc3s2)C1` [Compound 17, N-[3-(2-benzothiazolyl)-4,5,6,7-tetrahydro-6-ethylthieno[2,3-c]pyridin-2-yl]-3-(2,5-dioxo-1-pyrrolidinyl)benzamide], the half-maximal inhibitory concentration (IC50) was found to be 300 nM and testing at 30 µM gave an inhibition of 77%. For `CCN1CCc2c(sc(NC(=O)c3ccc(Cl)cc3)c2-c2nc3ccccc3s2)C1` [Compound 10, N-[3-(2-benzothiazolyl)-4,5,6,7-tetrahydro-6-ethylthieno[2,3-c]pyridin-2-yl]-(4-chloro)benzamide], the inhibition at 30 µM was 71%. On to `COc1cc2ccccc2cc1C(=O)Nc1sc2c(c1-c1nc3ccccc3s1)CCN(C)C2` [Compound 15, N-[3-(2-benzothiazolyl)-4,5,6,7-tetrahydro-6-methylthieno[2,3-c]pyridin-2-yl]-3-methoxy-2-naphthalenecarboxamide], for which the inhibition at 30 µM came to 43%.

In turn, `CCN1CCc2c(sc(NC(=O)CCS(=O)(=O)c3ccccc3)c2-c2nc3ccccc3s2)C1` [Compound 38, N-[3-(2-benzothiazolyl)-4,5,6,7-tetrahydro-6-ethylthieno[2,3-c]pyridin-2-yl]-3-(phenylsulfonyl)propanamide] yielded an inhibition at 30 µM of 50%.

Regarding `O=C(Nc1sc2c(c1-c1nc3ccccc3s1)CCN(Cc1ccccc1)C2)c1ccc(Br)s1` [Compound 24, N-[3-(2-benzothiazolyl)-4,5,6,7-tetrahydro-6-phenylmethylthieno[2,3-c]pyridin-2-yl]-2-(5-bromo)thiophenecarboxamide], the inhibition at 30 µM was 52%. On to `CN1CCc2c(sc(NC(=O)c3ccc4ncsc4c3)c2-c2nc3ccccc3s2)C1` [Compound 34, N-[3-(2-benzothiazolyl)-4,5,6,7-tetrahydro-6-methylthieno[2,3-c]pyridin-2-yl]-6-benzothiazolecarboxamide], for which the half-inhibitory concentration (IC50) is 200 nM and at 30 µM the inhibition was 77%. Compound `CCN1CCc2c(sc(NC(=O)c3cc4cc([N+](=O)[O-])ccc4s3)c2-c2nc3ccccc3s2)C1` [Compound 28, N-[3-(2-benzothiazolyl)-4,5,6,7-tetrahydro-6-ethylthieno[2,3-c]pyridin-2-yl]-benzo[b]thiophene-5-nitro-2-carboxamide] displayed an inhibition at 30 µM of 35%.

For the compound `CN1CCc2c(sc(NC(=O)CCSc3ccc(F)cc3)c2-c2nc3ccccc3s2)C1` [Compound 12, N-[3-(2-benzothiazolyl)-4,5,6,7-tetrahydro-6-methylthieno[2,3-c]pyridin-2-yl]-3-[(4-fluorophenyl)thio]propanamide], the inhibition at 30 µM was found to be 62%. In turn, `CCOC(=O)N1CCc2c(sc(NC(=O)c3ccccc3)c2-c2nc3ccccc3s2)C1` [Compound 35, N-[3-(2-benzothiazolyl)-4,5,6,7-tetrahydro-6-ethoxycarbonylthieno[2,3-c]pyridin-2-yl]benzamide] yielded an inhibition at 30 µM of 37%. Compound `CCN1CCc2c(sc(NC(=O)CCSc3ccccc3)c2-c2nc3ccccc3s2)C1` [Compound 29, N-[3-(2-benzothiazolyl)-4,5,6,7-tetrahydro-6-ethylthieno[2,3-c]pyridin-2-yl]-3-(phenylthio)propanamide] returned a half-inhibitory concentration (IC50) of 1300 nM and an inhibition at 30 µM of 72%. The compound `CC(C)N1CCc2c(sc(NC(=O)CN3C(=O)CCC3=O)c2-c2nc3ccccc3s2)C1` [Compound 31, N-[3-(2-benzothiazolyl)-4,5,6,7-tetrahydro-6-(methylethyl)thieno[2,3-c]pyridin-2-yl]-(2,5-dioxo-1-pyrrolidine)acetamide] showed an inhibition at 30 µM of 37%.

The compound `CC(C)N1CCc2c(sc(NC(=O)CCc3ccccc3)c2-c2nc3ccccc3s2)C1` [Compound 18, N-[3-(2-benzothiazolyl)-4,5,6,7-tetrahydro-6-(1-methylethyl)thieno[2,3-c]pyridin-2-yl]-3-benzenepropaneamide] came in with an inhibition at 30 µM of 44%. As for `O=C(Nc1sc2c(c1-c1nc3ccccc3s1)CCN(Cc1ccccc1)C2)c1cccs1` [Compound 23, N-[3-(2-benzothiazolyl)-4,5,6,7-tetrahydro-6-phenylmethylthieno[2,3-c]pyridin-2-yl]-2-thiophenecarboxamide], the inhibition at 30 µM came out at 57%. In turn, `O=C(COc1ccc(Cl)cc1)Nc1sc2c(c1-c1nc3ccccc3s1)CCN(Cc1ccccc1)C2` [Compound 27, N-[3-(2-benzothiazolyl)-4,5,6,7-3-tetrahydro-6-phenylmethylthieno[2,3-c]pyridin-2-yl]-2-(4-chlorophenoxy)acetamide] yielded an inhibition at 30 µM of 55%.
